{"source": "paper PMC9122897", "about": "“SHR1032, a novel STING agonist, stimulates anti-tumor immunity and directly induces AML apoptosis” (Scientific Reports, 2022)", "key": {"THP1-STING-KO cells": {"test_system": "THP1-STING-KO cells", "assay": "CellTiter-Glo cell growth", "assay_type": "cell-based, human", "procedure": "(§1) (a–d) AML cells were treated with STING agonists and standard of care cytarabine, and cell viability was measured by CellTiter Glo in (a) THP1-STING-R232, (b) THP1-STING-KO, (c) MV-4-11 and (d) MOLM-16. (e) MV-4-11, MOLM-16 and THP1-STING-KO cells were stimulated with 1 µM of SHR1032 for the indicated time points. The amount of pTBK1, total TBK1, pSTING, total STING and α-tubulin was measured by Western blot. pSTING phosphorylated STING. THP1 reporter cells were treated for 24 h with a total of 100 k cells and 150 ul media in each well a 96-well plate. Following the incubation, 20 µl of supernatant was transferred to an opaque 96 well ½ area plate and incubated for 30 s with 50 µl of QUANTI-Luc substrate (InvivoGen) per manufacturer’s instructions. Luminescence signal was measured using Tecan infinite M1000. EC50 values were calculated using non-linear regression analysis of GraphPad Prism. Cell growth was monitored by CellTiter-Glo Luminescent Cell Viability Assay (Promega) per manufacture’s protocol. GI50 values were calculated using non-linear regression analysis of GraphPad Prism. Cell lysates for western blotting were made in RIPA buffer (Sigma) with Halt Protease and Phosphatase Inhibitors (Thermo Scientific). Antibodies against pSTING, TBK1, pTBK1 and tubulin were purchased from Cell Signaling Technologies, and anti-STING was purchased from Protein Tech."}, "THP1-STING-R232 cells": {"test_system": "THP1-STING-R232 cells", "assay": "CellTiter-Glo cell growth", "assay_type": "cell-based, human", "procedure": "as §1"}, "[1]": {"test_system": "MC38 mouse syngeneic colorectal adenocarcinoma", "assay": "MC38 syngeneic tumor model", "assay_type": "in vivo, C57BL/6 mouse", "conditions": "50 µg intratumorally on day 1, 5, 8; after 21 days since the first dosing", "procedure": "Figure 3 Robust cytokine induction and antitumor effects in vivo. (a,b) C57BL/6 mice were inoculated with mouse MC38 colon cancer cells in the left flank. When tumor volumes were 100 mm^3, they received intratumoral (IT) dose of 100 µg of SHR1032 on day 1, 5, 8 and 12 or IT dose of 50 µg ADU-S100 on day 1, 5, and 8, or vehicle, respectively. (a) Tumor volume was measured at different time points. Results are shown as mean tumor volume ± sem. (n = 8 animals per group). (b) Mouse bodyweight was measured at different time points. (c–f) C57BL/6 mice were inoculated with mouse MC38 colon cancer cells in the left flank. When tumor volumes were 100 mm^3, they received one IT dose of 100 µg of SHR1032 or 50 µg ADU-S100, or vehicle. (c) IFNβ, (d) IL-6 and (e) TNFα from both tumor and plasma was measured by ELISA 4 h after. (f) SHR1032 compound concentration in tumors were measured.\nHuman and Cynomolgous PBMC’s were thawed and spun down in Lymphocyte media (ZENBIO) and resuspended in media to 1.5 x 10^6 cells/ml density. Mouse RAW 264.7 cells were detached from the flask and resuspended in media to 1.5 x 10^6 cells/ml density. Then, 100 µl of media containing the cells was added to each well of a 96-well plate containing compound in 50 µl of media. Plates were incubated for 5 h at 37 °C and supernatant was collected for ELISA analysis. Human and monkey IFN-β protein concentration was measured using human IFN-β Quantikine ELISA Kits (R&D Systems) per manufacture’s protocol. Mouse IFN-β was measured using mouse IFN-β Quantikine ELISA Kits (R&D Systems) per manufacture’s protocol. Mouse TNFα, IFN-β and IL-6 in the tumor lysates and plasma was measured by Quantikine ELISA Kits (R&D Systems) per manufacture’s protocol.\nFemale C57BL/6 mice, aged between 8 and 10 weeks old, were purchased from Charles River Lab. MC38 mouse colorectal cancer cells were resuspended as single cell solution in PBS at a concentration of 5 × 10^6 cells/ml. One hundred µl of cell suspension were implanted in the right flank of mice subcutaneously. Tumor size was measured by a caliper in three dimensions and its volume was then calculated according to the following formula: Tumor Volume (mm^3) = l * w * h * 0.5236, where l = length, w = width and h = height in mm for a tumor. When the average tumor volume reached around 100 mm^3, the mice were randomly assigned into three groups (n = 8) and each group of mice received one regimen. This day was assigned as day 0 for the study. […] Tumor volume and body weight were measured 3 times per week throughout the study. […] Cytokines and SHR1032 concentration in the plasma and tumor tissues were analyzed. […]"}, "MOLM-16 cells": {"test_system": "MOLM-16 cells", "assay": "CellTiter-Glo cell growth", "assay_type": "cell-based", "conditions": "Homo sapiens, MOLM16; MOLM-16, CellTiter Glo", "procedure": "as §1"}, "MV4-11 cells": {"test_system": "MV4-11 cells", "assay": "CellTiter-Glo cell growth", "assay_type": "cell-based", "conditions": "Homo sapiens; MV4-11, CellTiter Glo", "procedure": "as §1"}, "human STING": {"target": "T1, human STING (Homo sapiens, UniProt Q86WV6)", "T1 construct": "made in house; host or cells: E. coli", "T1 sequence (Q86WV6 155-341 limits assumed)": "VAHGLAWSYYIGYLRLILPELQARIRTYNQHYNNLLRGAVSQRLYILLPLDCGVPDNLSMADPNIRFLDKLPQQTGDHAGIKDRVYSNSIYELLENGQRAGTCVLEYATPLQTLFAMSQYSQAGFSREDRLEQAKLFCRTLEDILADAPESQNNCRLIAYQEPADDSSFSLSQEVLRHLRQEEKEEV", "assay": "Thermal shift assay", "assay_type": "binding", "conditions": "human STING protein 5 uM; ligand bound vs apo", "text": "(§2) We sought to develop small molecule compounds with increased STING agonist activity against human STING. GSK reported a series of non-CDN small molecules, represented by compound 1[13], with good human STING agonistic activity. Based on our molecular modeling analysis, along with the reported CDN-STING crystal structures, we designed a novel series of fused tricyclic heterocycle compounds and analyzed their binding to human STING with thermal shift assays and the potency in activation of STING signaling with a reporter cellular assay (Supplementary Table S1). Thermal shift assays measure the difference between apo STING and ligand bound STING in the inflection point at which 50% of protein is thermally unfolded (ΔTm). […] The ability of compounds to activate the IRF reporter gene in the THP1 cells was also evaluated.\nThe melting temperature (Tm) of human STING was determined by calculating the temperature at the inflection point of the thermal melt curve generated on a Roche LightCycler 480 using 384 plate format and 465–590 nm filter set. […] Florescence was measured while ramping the plate temperature from 20 to 95 °C and the resulting data was processed using ROCHE data analysis software. Delta Tms were calculated by subtracting the Tm of untreated protein from ligand treated samples. […]"}, "THP1 reporter cells": {"test_system": "THP1 reporter cells", "assay": "THP1 IRF luciferase reporter assay", "assay_type": "cell-based", "conditions": "Homo sapiens, THP-1; IRF Lucia luciferase reporter, 24 h; read-out: THP1 reporter cell EC50", "text": "as §2\nTHP1 reporter cells were treated for 24 h with a total of 100 k cells and 150 ul media in each well a 96-well plate. […] Luminescence signal was measured using Tecan infinite M1000. EC50 values were calculated using non-linear regression analysis of GraphPad Prism. Cell growth was monitored by CellTiter-Glo Luminescent Cell Viability Assay (Promega) per manufacture’s protocol. GI50 values were calculated using non-linear regression analysis of GraphPad Prism. […]"}}, "note": "Where two headings read alike, the source gives them in different places.", "data": [{"smiles": "Nc1ncnc2c1ncn2[C@@H]1O[C@@H]2COP(=O)([S-])O[C@@H]3[C@H](O)[C@@H](COP([O-])(=S)O[C@H]2[C@H]1O)O[C@H]3n1cnc2c(N)ncnc21.[Na+].[Na+]", "note": "(some centres unmarked) [ADU-S100, reference compound]", "values": [{"measurement": "cell growth inhibition", "setting": "THP1-STING-KO cells", "value": "not detectable"}, {"measurement": "GI50", "setting": "THP1-STING-R232 cells", "value": 9440, "unit": "nM"}, {"measurement": "tumor response", "setting": "[1]", "value": "complete tumor regression"}]}, {"smiles": "Nc1ccn([C@@H]2O[C@H](CO)[C@@H](O)[C@@H]2O)c(=O)n1", "note": "[cytarabine, reference compound]", "values": [{"measurement": "GI50", "setting": "THP1-STING-R232 cells; Homo sapiens", "value": 100, "unit": "nM"}, {"measurement": "GI50", "setting": "MOLM-16 cells", "value": 450, "unit": "nM"}, {"measurement": "GI50", "setting": "MV4-11 cells", "value": 340, "unit": "nM"}]}, {"smiles": "C=CC[C@H]1COc2cc(C(N)=O)cc3nc(NC(=O)c4cc(C)nn4CC)n1c23", "note": "[Compound 2]", "values": [{"measurement": "Thermal shift ∆Tm", "setting": "human STING", "value": 5.7, "unit": "°C"}, {"measurement": "EC50", "setting": "THP1 reporter cells", "value": 1600, "unit": "nM"}]}]}
